These results are taken from paper PMC4872774, “DYRK1B as therapeutic target in Hedgehog/GLI-dependent cancer cells with Smoothened inhibitor resistance” (Oncotarget, 2016).

In the assay the target is Dual-Specificity-Tyrosine-Phosphorylation-Regulated Kinase 1B (DYRK1B) (Homo sapiens, UniProt Q9Y463). The assay can be described thus: radiometric […]-ATP kinase assay with recombinant DYRK1B and DYRKtide substrate ([…] ATP). The class given is biochemical.
Dual-Specificity-Tyrosine-Phosphorylation-Regulated Kinase 1B (DYRK1B), sequence (Q9Y463 whole entry): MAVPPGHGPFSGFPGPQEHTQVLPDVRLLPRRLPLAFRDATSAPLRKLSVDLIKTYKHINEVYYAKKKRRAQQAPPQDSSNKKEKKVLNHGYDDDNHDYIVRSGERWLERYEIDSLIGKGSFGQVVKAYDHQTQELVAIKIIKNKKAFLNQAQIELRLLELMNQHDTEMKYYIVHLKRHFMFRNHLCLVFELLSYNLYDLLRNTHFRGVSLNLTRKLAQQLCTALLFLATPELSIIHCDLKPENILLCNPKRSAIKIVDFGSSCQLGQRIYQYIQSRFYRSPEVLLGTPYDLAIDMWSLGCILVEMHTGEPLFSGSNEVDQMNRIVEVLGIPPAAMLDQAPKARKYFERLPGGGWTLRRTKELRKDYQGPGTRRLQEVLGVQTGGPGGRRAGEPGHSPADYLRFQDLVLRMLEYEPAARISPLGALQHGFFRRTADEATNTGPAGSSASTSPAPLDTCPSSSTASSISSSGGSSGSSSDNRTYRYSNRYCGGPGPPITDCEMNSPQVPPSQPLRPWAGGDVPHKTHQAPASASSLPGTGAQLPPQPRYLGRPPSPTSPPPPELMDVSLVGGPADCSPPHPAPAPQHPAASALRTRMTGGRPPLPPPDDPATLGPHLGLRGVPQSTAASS

As for `O=C(Nc1nc2cc(C(F)(F)F)ccc2[nH]1)c1csc(-c2ccc3c(c2)CCO3)n1` [DYRKi], the IC50 (in general, the midpoint of a concentration-inhibition curve) came to 90 nM.
